Columns and labels:
[1] = tested on: HEK-mFAP tumor-bearing mice; assay: 68Ga dynamic PET/CT imaging; type: in vivo, mouse; conditions: dynamic PET over 60 min, IV bolus
Description: Part 1. Dynamic PET Imaging. The aim of the study is to perform ^68Ga-6555 PET/CT dynamic imaging in HEK-mFAP tumor-bearing mice to assess tumor uptake and retention over time, as well as non-specific uptake. HEK-mFAP tumor-bearing mice were used for the study (N=3). ^68Ga-6555 (prepared as per Example 20) PET imaging was carried out on a dedicated small animal PET/CT scanner (Siemens Multimodality Inveon, Siemens Medical Solutions USA, Inc.). The mice were anesthetized using 3% isoflurane/medical air inhalation prior to the radiotracer injection and throughout the scan duration. Warming was used to maintain healthy core body temperature of the mice during periods of unconsciousness. Following a bolus intravenous injection (via the lateral tail vein) of ^68Ga-6555 (average of 8 MBq, 7.7-8.1 MBq range), a dynamic emission scan was acquired in list mode format over 60 min. […] The reconstructed PET/CT images were analyzed with the Siemens Inveon Research Workplace software. The radioactivity retention within the selected tissue was obtained from mean voxel intensity values within the VOI and then converted to megabecquerels per milliliter using the calibration factor determined for the Inveon PET System. […] We used the maximum SUV value (SUVmax) within a VOI as a quantitative imaging metric which is independent of tissue intrinsic variations. […]

[2] = Radiochemical purity by HPLC on storage at room temperature; type: physicochemical; conditions: 4 hours at room temperature
Description: The labeling efficiency was analyzed by instant thin layer chromatography (iTLC) and was typically >98%. For iTLC analysis, 1 μL of diluted labeling solution was applied to a strip of iTLC-SA chromatography paper (Agilent P/N A120B12, 114×2.5 mm) and developed in 0.1M citrate buffer (8 cm solvent migration) to assess free ^177Lu (Rf >0.5) and [^177Lu]-6555 (Rf ˜0). The iTLC strips were analyzed using an Eckert & Ziegler AR-2000 Radio-TLC Imaging Scanner. The radiochemical purity was analyzed by high performance chromatography (HPLC) and was typically >90%. Briefly, the product was analyzed using a Phenomenex Luna 3.0 μm C18(2), 100A, 150 mm×4.6 mm column. Eluent A: 50 mM ammonium acetate in water, eluent B: acetonitrile. Gradient: 2% B from 0-5 min; 2% to 26% B from 5-20 min; 26% to 98% B from 20-25 min; 98% to 2% B from 25-26 min; 2% B from 26-30 min. Flow rate: 1.0 mL/min, Radio-HPLC detector: NaI (Eckert & Zeigler FC-1000), UV: 215 nm. The radiochemical purity remained >90% for three days at room temperature.
The above depicted radiopharmaceutical [^177Lu]-6952 can be prepared as described in Example 19 using the radiochemical precursor 6952 (Example 14 above). The labeling efficiency was analyzed by instant thin layer chromatography (iTLC) and was typically >98%. […] The iTLC strips were analyzed using an Eckert & Ziegler AR-2000 Radio-TLC Imaging Scanner. The radiochemical purity was analyzed by high performance chromatography (HPLC) and was typically >90%. Briefly, the product was analyzed using a Phenomenex Luna 3.0 m C18(2), 100A, 150 mm×4.6 mm column. […]
The labeling efficiency was analyzed by instant thin layer chromatography (iTLC) and was typically >95%. […] The iTLC strips were analyzed using an Eckert & Ziegler AR-2000 Radio-TLC Imaging Scanner. The radiochemical purity was analyzed by high performance chromatography (HPLC) and was typically >95%. Briefly, the product was analyzed using a Phenomenex Luna 3.0 m C18(2), 100Å, 150 mm×4.6 mm column. […]
The labeling efficiency was analyzed by instant thin layer chromatography (iTLC) and was typically >95%. […]

## C[C@@H](NC(=O)c1ccc(CNC(=O)CN2CCN3CCN4CCN(CC2)CC(=O)[O][Ga]([O]C(=O)C3)[O]C(=O)C4)cc1)C(=O)N1CCC[C@H]1B(O)O [[^68Ga]-6555]
[1]
  time of accumulation in the tumor (time-vs-activity curve): < 5 min
  time of reaching a plateau in the tumor: 60 min
[2]
  radiochemical purity remained: > 95%
